Reference: the supplement of paper PMC10307832

Columns and labels:
Assay in all cases: relative viability (nuclei count vs DMSO), 5 days (fraction); higher = more cells survive
COR-L23 = system: COR-L23
Method in brief: (§1)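 Values are medians from duplicate plates. Each reflects relative viability, defined as the nuclei count of treated wells over that of vehicle wells. Lung cancer cell lines in 1536-well plates were pin-tool dosed one day after seeding with one drug alone or with a fixed anchor-drug dose plus five library-drug doses (not always all listed) in √10 steps, then fixed, stained and imaged at 4× after 5 days.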

ChaGo-K-1 = system: ChaGo-K-1
Method in brief: as §1

EPLC-272H = system: EPLC-272H
Method in brief: as §1

HCC-15 = system: HCC-15
Method in brief: as §1

HCC-366 = system: HCC-366
Method in brief: as §1

HCC-44 = system: HCC-44
Method in brief: as §1

HCC-827 = system: HCC-827
Method in brief: as §1

LCLC-103H = system: LCLC-103H
Method in brief: as §1

NCI-H1355 = system: NCI-H1355
Method in brief: as §1

NCI-H1734 = system: NCI-H1734
Method in brief: as §1

NCI-H1793 = system: NCI-H1793
Method in brief: as §1

In the case of CCNC(=O)c1noc(-c2cc(C(C)C)c(O)cc2O)c1-c1ccc(CN2CCOCC2)cc1 [Luminespib] + Nc1nc2[nH]cc(CCc3ccc(C(=O)N[C@@H](CCC(=O)O)C(=O)O)cc3)c2c(=O)[nH]1 [Pemetrexed] (partner 0.2 µM), the relative viability (COR-L23; first compound 0.002 µM) is reported as 0.19, the relative viability (COR-L23; first compound 0.006325 µM) is reported as 0.187 and the relative viability (COR-L23; first compound 0.02 µM) is reported as 0.215. The relative viability (COR-L23; first compound 0.06325 µM) was 0.196, the relative viability (COR-L23; first compound 0.2 µM) was 0.101 and the relative viability (ChaGo-K-1; first compound 0.002 µM) was 0.27. The relative viability (ChaGo-K-1; first compound 0.006325 µM) was 0.253, the relative viability (ChaGo-K-1; first compound 0.02 µM) was 0.253 and the relative viability (ChaGo-K-1; first compound 0.06325 µM) was 0.248. It also gave a relative viability (ChaGo-K-1; first compound 0.2 µM) of 0.206, a relative viability (EPLC-272H; first compound 0.002 µM) of 0.41 and a relative viability (EPLC-272H; first compound 0.006325 µM) of 0.266. It also gave a relative viability (EPLC-272H; first compound 0.02 µM) of 0.335, a relative viability (EPLC-272H; first compound 0.06325 µM) of 0.133 and a relative viability (EPLC-272H; first compound 0.2 µM) of 0.113. For the same compound, the relative viability (HCC-15; first compound 0.002 µM) was 0.219, the relative viability (HCC-15; first compound 0.006325 µM) was 0.236 and the relative viability (HCC-15; first compound 0.02 µM) was 0.214. It also gave a relative viability (HCC-15; first compound 0.06325 µM) of 0.193, a relative viability (HCC-15; first compound 0.2 µM) of 0.137 and a relative viability (HCC-366; first compound 0.002 µM) of 0.169. It also gave a relative viability (HCC-366; first compound 0.006325 µM) of 0.156, a relative viability (HCC-366; first compound 0.02 µM) of 0.366 and a relative viability (HCC-366; first compound 0.06325 µM) of 0.0354. It also gave a relative viability (HCC-366; first compound 0.2 µM) of 0.0333, a relative viability (HCC-44; first compound 0.002 µM) of 0.613 and a relative viability (HCC-44; first compound 0.006325 µM) of 0.611. For the same compound, the relative viability (HCC-44; first compound 0.02 µM) was 0.773, the relative viability (HCC-44; first compound 0.06325 µM) was 0.659 and the relative viability (HCC-44; first compound 0.2 µM) was 0.657. For the same compound, the relative viability (HCC-827; first compound 0.002 µM) was 0.22, the relative viability (HCC-827; first compound 0.006325 µM) was 0.27 and the relative viability (HCC-827; first compound 0.02 µM) was 0.236. It also gave a relative viability (HCC-827; first compound 0.06325 µM) of 0.159, a relative viability (HCC-827; first compound 0.2 µM) of 0.158 and a relative viability (LCLC-103H; first compound 0.002 µM) of 0.441. For the same compound, the relative viability (LCLC-103H; first compound 0.006325 µM) was 0.445, the relative viability (LCLC-103H; first compound 0.02 µM) was 0.535 and the relative viability (LCLC-103H; first compound 0.06325 µM) was 0.486. It also gave a relative viability (LCLC-103H; first compound 0.2 µM) of 0.472, a relative viability (NCI-H1355; first compound 0.002 µM) of 1.12 and a relative viability (NCI-H1355; first compound 0.006325 µM) of 1.02. It also gave a relative viability (NCI-H1355; first compound 0.02 µM) of 0.627, a relative viability (NCI-H1355; first compound 0.06325 µM) of 0.895 and a relative viability (NCI-H1355; first compound 0.2 µM) of 0.14. The relative viability (NCI-H1734; first compound 0.002 µM) was 0.475, the relative viability (NCI-H1734; first compound 0.006325 µM) was 0.406 and the relative viability (NCI-H1734; first compound 0.02 µM) was 0.428. For the same compound, the relative viability (NCI-H1734; first compound 0.06325 µM) was 0.159, the relative viability (NCI-H1734; first compound 0.2 µM) was 0.143 and the relative viability (NCI-H1793; first compound 0.002 µM) was 0.859. The relative viability (NCI-H1793; first compound 0.006325 µM) was 0.741.
